Measurements reported in US6410480B1, “Herbicidally active 3-hydroxy-4-aryl-5-oxopyrazoline derivatives” (Syngenta Crop Protection, Inc., priority 1998, dated 2002).

Key:
Assay type in all cases: in vivo
Set-up in all cases: key: 1=complete damage; 9=no effect; Ratings of 1 to 4 (in particular 1 to 3) mean a good to very good herbicidal action
Avena [1] = test: Example B4: post-emergence herbicidal action of compounds of the invention; conditions: 3- to 6-leaf stage, 250 g of active substance/ha, 3 weeks after application, scale 1-9
Method: (§1) Monocotyledonous and dicotyledonous weeds are grown in standard soil in plastic pots under greenhouse conditions. The test substances are applied at the 3- to 6-leaf stage of the test plants. The test substances are applied (500 l of water/ha) as an aqueous suspension (prepared using a 25% wettable powder (Example F3, b)) or as an emulsion (prepared using a 25% emulsion concentrate (Example F1, c)) at an application rate of 250 g of active substance/ha. 3 weeks after the application, evaluation is carried out using a nine-level scale of ratings (1=complete damage, 9=no effect). Ratings of 1 to 4 (in particular 1 to 3) mean a good to very good herbicidal action. Test plants: Avena (Ave), Lolium (Lol), Setaria (Set).

Lolium [2] = test: as above; conditions: 3- to 6-leaf stage, 250 g of active substance/ha, 3 weeks after application, scale 1-9
Method: as §1

Setaria [3] = test: as above; conditions: 3- to 6-leaf stage, 250 g of active substance/ha, 3 weeks after application, scale 1-9
Method: as §1

Avena [4] = test: Example B3: pre-emergence herbicidal action of compounds of the invention; conditions: 500 g of active substance/ha, 3 weeks after application, scale 1-9
Method: as §1, with “pots. Directly after sowing,” for “pots under greenhouse conditions. The test substances are applied at”, “the” for “the 3- to 6-leaf stage of the test plants. The”, “c)). The” for “c)) at an”, “is 500” for “of 250”, “substance/ha. The test plants are subsequently grown under optimum conditions in a greenhouse” for “substance/ha.”

Lolium [5] = test: as above; conditions: 500 g of active substance/ha, 3 weeks after application, scale 1-9
Method: as §1, with “pots. Directly after sowing,” for “pots under greenhouse conditions. The test substances are applied at”, “the” for “the 3- to 6-leaf stage of the test plants. The”, “c)). The” for “c)) at an”, “is 500” for “of 250”, “substance/ha. The test plants are subsequently grown under optimum conditions in a greenhouse” for “substance/ha.”

Setaria [6] = test: as above; conditions: 500 g of active substance/ha, 3 weeks after application, scale 1-9
Method: as §1, with “pots. Directly after sowing,” for “pots under greenhouse conditions. The test substances are applied at”, “the” for “the 3- to 6-leaf stage of the test plants. The”, “c)). The” for “c)) at an”, “is 500” for “of 250”, “substance/ha. The test plants are subsequently grown under optimum conditions in a greenhouse” for “substance/ha.”

Compound | Post-emergence action, Ave (rating) (Avena [1]) | Post-emergence action, Lol (rating) (Lolium [2]) | Post-emergence action, Set (rating) (Setaria [3]) | Pre-emergence action, Ave (rating) (Avena [4]) | Pre-emergence action, Lol (rating) (Lolium [5]) | Pre-emergence action, Set (rating) (Setaria [6])
C#Cc1cc(C)cc(C)c1-c1c(OC(=O)C(C)(C)C)n2n(c1=O)CCOCC2 [1.016] | 3 | 2 | 2 | – | – | –
CCc1cc(C)cc(C)c1-c1c(O)n2n(c1=O)CCOCC2 [1.004] | – | – | – | 1 | 1 | 2
Cc1cc(C)c(-c2c(O)n3n(c2=O)CCOCC3)c(Br)c1 [1.078] | 1 | 1 | 4 | – | – | –
CCc1cc(C)cc(C)c1-c1c(OC(=O)C(C)(C)C)n2n(c1=O)CCOCC2 [1.005] | 1 | 2 | 2 | – | – | –
CCc1cc(C)cc(CC)c1-c1c(OC(=O)C(C)(C)C)n2n(c1=O)CCOCC2 [1.008] | – | – | – | 1 | 1 | 1
